ChEMBL document CHEMBL5321229, “Conformationally locked sugar derivatives and analogues as potential neuraminidase inhibitors” (Eur J Med Chem, 2023)

Biological target: Neuraminidase (Influenza A virus (A/Memphis/1/1971(H3N2)), UniProt P03471, E119V)
Assay: Inhibition of influenza A virus H3N2 (A/Moscow/10/99) harboring E119V mutant neuraminidase using MUNANA as substrate preincubated for 30 mins followed by substrate addition by fluorescence-based assay

CCC(CC)O[C@@H]1C=C(C(=O)O)C[C@H](n2nncc2-c2cccc(N)c2)[C@H]1NC(C)=O
IC50: 0.79 µM
